Data published in US20250002453A1, “PHARMACEUTICALLY ACCEPTABLE SALT OF ELIGLUSTAT AND CRYSTAL FORM THEREOF” (SPEROGENIX (SHANGHAI) MEDTECH CO., LTD., priority 2021, published 2025).
Entries after “also recorded” stand apart in the source; their conditions may differ. Like-named read-outs stand apart in the source and are kept apart here.

What was measured:
[1] = Solid state stability assessment (XRPD and HPLC after exposure at 25° C./60% RH and 40° C./75% RH); assay type: physicochemical
Procedure: XRPD patterns are collected on an X-ray powder diffraction analyzer produced by PANalytacal, and Table 2 lists the XRPD parameters.
(§1) The purity test, dynamic solubility and stability test in the experiment are completed by Agilent 1260 high performance liquid chromatography. The salt-forming molar ratio test of ions is completed by ion chromatography test.
After leaving the crystalline form C of 1,5-naphthalene disulfonate in the exposure evaporation at 25° C./60% RH and 40° C./75% RH for 1 week, […] and 4 weeks. The physical and chemical stability of the sample was tested by XRPD and HPLC, and the stability data of crystalline form A of tartrate and free crystalline form A at 1 week, 2 weeks and 4 weeks were used as a reference. At the same time, the stability of crystalline form B of 1,5-naphthalene disulfonate and crystalline form A of oxalate was tested under the conditions of 25° C./60% RH and 40° C./75% RH for 1 week.

[2] = Dynamic solubility test (water, SGF, FaSSIF, FeSSIF; 37° C.; 1, 4 and 24 hours); assay type: physicochemical; details: for S: Solubility (free concentration) / pH (of filtrate) / FC: Crystalline form transformation: 37° C.; for FC: Crystalline form transformation: XRPD of residual solid
Procedure: 0.2 g sodium chloride and 0.1 g Triton X-100 are weighted into a 100 mL volumetric flask. Pure water is added for dissolution, stirred until the solid is completely dissolved, about 1.632 mL hydrochloric acid (1M) is added, and the pH is adjusted to 1.8 with 1M hydrochloric acid or 1M sodium hydroxide, and finally it is diluted to volume with pure water.
0.34 g sodium dihydrogen phosphate (NaH2PO4, anhydrous), 0.042 g sodium hydroxide, and 0.62 g sodium chloride are weighted respectively into a 100 mL volumetric flask, about 48 mL pure water is added for dissolution, the pH is adjusted to 6.5 with 1M hydrochloric acid or 1M sodium hydroxide, and finally it is diluted to volume with pure water to obtain a stock solution. A 50-mL volumetric flask is taken. 0.11 g of SIF powder is added, and dissolved with the above stock solution, then diluted to volume. The powder is completely dissolve by ultrasound.
as §1
The dynamic solubility of crystalline form B/crystalline form C of 1,5-naphthalene disulfonate, crystalline form A of oxalate, crystalline form A of tartrate and free crystalline form A in water and three biological solvents were evaluated.
After sampling at each time point, the samples were centrifugally filtered (0.45 μm PTFE filter head), the free salt concentration and pH value in the filtrate were measured, and the solid samples after centrifugation were tested for XRPD.

[3] = Evaluation of hygroscopicity by Dynamic Vapor Sorption (DVS); assay type: physicochemical; details: for Transformation of crystalline form: after DVS test
Procedure: Dynamic Vapor Sorption (DVS) profiles are collected on the DVS Intrinsic of SMS (Surface Measurement Systems). Relative humidity at 25° C. is corrected with the deliquescent points of LiCl, Mg(NO3)2 and KCl.
The hygroscopicity of crystalline form B/crystalline form C of 1,5-naphthalene disulfonate, crystalline form A of oxalate, crystalline form A of tartrate and free crystalline form A were evaluated by DVS.

[4] = as described in WO2011066352A1; cited from earlier work
[5] = plasma concentration of eliglustat 500 ng/ml; cited from earlier work
[6] = 1 week of exposure at 25° C./60% RH and 40° C./75% RH
[7] = left exposed for 4 weeks at 25° C./60% RH and 40° C./75% RH

Row | SMILES | S: Solubility (free concentration) ([2]; FaSSIF, 1 hr) | pH (of filtrate) ([2]; FaSSIF, 1 hr) | S: Solubility (free concentration) ([2]; FaSSIF, 4 hrs) | pH (of filtrate) ([2]; FaSSIF, 4 hrs) | S: Solubility (free concentration) ([2]; FaSSIF, 12 hrs) | pH (of filtrate) ([2]; FaSSIF, 12 hrs) | S: Solubility (free concentration) ([2]; H2O, 1 hr) | pH (of filtrate) ([2]; H2O, 1 hr) | FC: Crystalline form transformation ([2]; H2O, 1 hr) | S: Solubility (free concentration) ([2]; H2O, 4 hrs) | pH (of filtrate) ([2]; H2O, 4 hrs) | FC: Crystalline form transformation ([2]; H2O, 4 hrs) | S: Solubility (free concentration) ([2]; H2O, 12 hrs) | pH (of filtrate) ([2]; H2O, 12 hrs) | FC: Crystalline form transformation ([2]; H2O, 12 hrs) | S: Solubility (free concentration) ([2]; SGF, 1 hr) | pH (of filtrate) ([2]; SGF, 1 hr) | S: Solubility (free concentration) ([2]; SGF, 4 hrs) | pH (of filtrate) ([2]; SGF, 4 hrs) | S: Solubility (free concentration) ([2]; SGF, 12 hrs) | further results
1 | CCCCCCCC(=O)N[C@H](CN1CCCC1)[C@H](O)c1ccc2c(c1)OCCO2.CCCCCCCC(=O)N[C@H](CN1CCCC1)[C@H](O)c1ccc2c(c1)OCCO2.O=C(O)C(=O)O [Crystalline form A of oxalate] | ≥8.1 mg/mL | 6.52 | ≥8.2 mg/mL | 6.48 | ≥8.1 mg/mL | 6.47 | 6.8 mg/mL | 7.07 | No | 7.8 mg/mL | 7.51 | No | 8.0 mg/mL | 7.30 | No | ≥8.4 mg/mL | 2.19 | ≥8.5 mg/mL | 2.17 | ≥8.2 mg/mL | decrease in HPLC purity [1, 6]: no decrease in HPLC purity was observed; pH (of filtrate) ([2]; SGF, 12 hrs): 2.05; Hygroscopic weight gain at 25° C./80% RH ([3]; DVS): 7.64%; hygroscopic weight gain at 25° C./80% RH ([3]; DVS): 7.64 wt %; Transformation of crystalline form [3]: No change; Transformation of crystalline form ([3]; listed as crystalline form A of oxalate): no change in crystalline form; weight loss (in words) ([3]; humidity lower than 10% RH): Significant weight loss
2 | CCCCCCCC(=O)N[C@H](CN1CCCC1)[C@H](O)c1ccc2c(c1)OCCO2.CCCCCCCC(=O)N[C@H](CN1CCCC1)[C@H](O)c1ccc2c(c1)OCCO2.O=S(=O)(O)c1cccc2c(S(=O)(=O)O)cccc12 | 2.7 mg/mL | 6.52 | 2.7 mg/mL | 6.51 | 2.6 mg/mL | 6.52 | 1.9 mg/mL | 7.67 | Yes | 2.0 mg/mL | 7.67 | Yes | 2.0 mg/mL | 7.75 | Yes | 2.7 mg/mL | 1.84 | 2.5 mg/mL | 1.75 | 2.3 mg/mL | decrease in HPLC purity [1, 6]: no decrease in HPLC purity was observed; change in crystalline form (XRPD) ([1]; left exposed for a week at 40° C./75% RH): partially transformed into the crystalline form C; FC: Crystalline form transformation ([2]; FaSSIF, 1 hr): Yes; FC: Crystalline form transformation ([2]; FaSSIF, 4 hrs): Yes; FC: Crystalline form transformation ([2]; FaSSIF, 12 hrs): Yes; FC: Crystalline form transformation ([2]; SGF, 1 hr): Yes; FC: Crystalline form transformation ([2]; SGF, 4 hrs): Yes; pH (of filtrate) ([2]; SGF, 12 hrs): 1.77; FC: Crystalline form transformation ([2]; SGF, 12 hrs): Yes; Hygroscopic weight gain at 25° C./80% RH ([3]; DVS): 0.59%; Transformation of crystalline form [3]: Change to crystalline; Transformation of crystalline form ([3]; listed as crystalline form B of 1,5-naphthalene disulfonate): changed to crystalline form C; hygroscopic weight gain (in words) ([3]; humidity higher than 80% RH at 25° C.): significant hygroscopic weight gain
3 | CCCCCCCC(=O)N[C@H](CN1CCCC1)[C@H](O)c1ccc2c(c1)OCCO2 [Free crystalline form A, reference compound] | 4.4 mg/mL | 7.31 | 4.4 mg/mL | 7.29 | 4.2 mg/mL | 7.30 | 0.12 mg/mL | 9.24 | No | 0.13 mg/mL | 9.03 | No | 0.17 mg/mL | 8.80 | No | 6.6 mg/mL | 7.27 | 6.7 mg/mL | 7.26 | 6.5 mg/mL | change in crystalline form (XRPD) [1, 7]: no change in crystalline form; decrease in HPLC purity [1, 7]: no change in crystalline form or decrease in HPLC purity was observed; FC: Crystalline form transformation ([2]; FaSSIF, 1 hr): No; FC: Crystalline form transformation ([2]; FaSSIF, 4 hrs): No; FC: Crystalline form transformation ([2]; FaSSIF, 12 hrs): No; FC: Crystalline form transformation ([2]; SGF, 1 hr): No; FC: Crystalline form transformation ([2]; SGF, 4 hrs): No; pH (of filtrate) ([2]; SGF, 12 hrs): 7.30; FC: Crystalline form transformation ([2]; SGF, 12 hrs): No; hygroscopicity (in words) ([3]; DVS): almost no hygroscopicity; Hygroscopic weight gain at 25° C./80% RH ([3]; DVS): 0.01%; Transformation of crystalline form [3]: did not change in crystalline form; also recorded: No change
4 | CCCCCCCC(=O)N[C@H](CN1CCCC1)[C@H](O)c1ccc2c(c1)OCCO2.CCCCCCCC(=O)N[C@H](CN1CCCC1)[C@H](O)c1ccc2c(c1)OCCO2.O.O.O=S(=O)(O)c1cccc2c(S(=O)(=O)O)cccc12 | 2.9 mg/mL | 6.48 | 2.8 mg/mL | 6.48 | 3.0 mg/mL | 6.49 | 2.0 mg/mL | 7.39 | No | 1.9 mg/mL | 7.33 | No | 2.0 mg/mL | 7.45 | No | 2.6 mg/mL | 1.80 | 2.4 mg/mL | 1.88 | 2.6 mg/mL | change in crystalline form (XRPD) [1, 7]: no change in crystalline form; decrease in HPLC purity [1, 7]: no change in crystalline form or decrease in HPLC purity was observed; FC: Crystalline form transformation ([2]; FaSSIF, 1 hr): No; FC: Crystalline form transformation ([2]; FaSSIF, 4 hrs): No; FC: Crystalline form transformation ([2]; FaSSIF, 12 hrs): No; FC: Crystalline form transformation ([2]; SGF, 1 hr): No; FC: Crystalline form transformation ([2]; SGF, 4 hrs): No; pH (of filtrate) ([2]; SGF, 12 hrs): 1.89; FC: Crystalline form transformation ([2]; SGF, 12 hrs): No; Hygroscopic weight gain at 25° C./80% RH ([3]; DVS): 0.33%; hygroscopic weight gain at 25° C./80% RH ([3]; DVS): 0.33 wt %; Transformation of crystalline form [3]: No change; Transformation of crystalline form ([3]; listed as crystalline form C of 1,5-naphthalene disulfonate): no change in crystalline form
5 | CCCCCCCC(=O)N[C@H](CN1CCCC1)[C@H](O)c1ccc2c(c1)OCCO2.O=S(=O)(O)c1cccc2c(S(=O)(=O)O)cccc12 [Eliglustat 1,5-naphthalene disulfonate] | – | – | – | – | – | – | – | – | – | – | – | – | – | – | – | – | – | – | – | – | solubility difference in water and simulated gastric fluid ([2]; water versus SGF, in words): small; hygroscopicity compared with eliglustat hemitartrate crystalline form A ([3]; comparison in words): lower hygroscopicity over eliglustat hemitartrate crystalline form A
6 | CCCCCCCC(=O)N[C@H](CN1CCCC1)[C@H](O)c1ccc2c(c1)OCCO2.Cl [hydrochloride salt] | – | – | – | – | – | – | – | – | – | – | – | – | – | – | – | – | – | – | – | – | hygroscopicity (in words) [4]: too hygroscopic for formulation
7 | CCCCCCCC(=O)NC(CN1CCCC1)C(O)c1ccc2c(c1)OCCO2.O=C(O)C(O)C(O)C(=O)O (stereo not drawn) [1:1 tartrate salt] | – | – | – | – | – | – | – | – | – | – | – | – | – | – | – | – | – | – | – | – | hygroscopicity (in words) [4]: too hygroscopic for formulation
8 | CCCCCCCC(=O)N[C@H](CN1CCCC1)[C@H](O)c1ccc2c(c1)OCCO2 [eliglustat] | – | – | – | – | – | – | – | – | – | – | – | – | – | – | – | – | – | – | – | – | predicted mean increase in PR interval [5]: 22 (26) milliseconds; predicted mean increase in QRS interval [5]: 7 (10) milliseconds; predicted mean increase in QTcF interval [5]: 13 (19) milliseconds
